Results from patent publication US10253002B2, “Compounds and methods of treating infections” (Neoculi Pty Ltd., priority 2013, dated 2019).
Converted amounts (≈) assume the structure as drawn. “And” between values parts separate entries of the source, which are not always exact repeats. Equal entries are not always repeated.

Assays:
Assay in all cases: Broth microdilution MIC, Example 7 (NCL812 and analogues)
VRE = format: cell-based, Enterococcus spp.
Outline: (§1)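 MICs in μg/ml were read as growth inhibition by eye, checked at 600 nm absorbance against drug-free wells, following CLSI broth microdilution. Strains: two MRSA, two VRE; duplicates, repeated once more when results diverged beyond one dilution step.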

Pseudomonas aeruginosa = format: cell-based; conditions: P. aeruginosa, 24 hours
MRSA = format: cell-based, Staphylococcus aureus
Outline: as §1

Escherichia coli = format: cell-based; conditions: E. coli, 24 hours
[1] = VRE 1, 24 hours, duplicate lines per compound
[2] = VRE 2, 24 hours, duplicate lines per compound
[3] = MRSA 1, 24 hours, duplicate lines per compound
[4] = MRSA 2, 24 hours, duplicate lines per compound

Row | Compound | MIC (μg/ml) at 24 hours, VRE 1 (VRE; [1]) [µg/mL] | MIC (μg/ml) at 24 hours, VRE 2 (VRE; [2]) | MIC (μg/ml) at 24 hours, P. aeruginosa (Pseudomonas aeruginosa; duplicate lines per compound) [µg/mL] | MIC (μg/ml) at 24 hours, MRSA 1 (MRSA; [3]) | MIC (μg/ml) at 24 hours, MRSA 2 (MRSA; [4]) [µg/mL] | MIC (μg/ml) at 24 hours, E. coli (Escherichia coli; duplicate lines per compound) [µg/mL] | MIC (μg/ml) at 24 hours, VRE 1 (VRE; VRE 1, 24 hours) [µg/mL] | MIC (μg/ml) at 24 hours, VRE 2 (VRE; VRE 2, 24 hours) [µg/mL] | MIC (μg/ml) at 24 hours, P. aeruginosa (Pseudomonas aeruginosa) [µg/mL] | MIC (μg/ml) at 24 hours, MRSA 1 (MRSA; MRSA 1, 24 hours) [µg/mL] | MIC (μg/ml) at 24 hours, MRSA 2 (MRSA; MRSA 2, 24 hours) [µg/mL] | MIC (μg/ml) at 24 hours, E. coli (Escherichia coli) [µg/mL]
1 | CCC(=NNC(=N)NN=C(CC)c1ccc(Cl)cc1)c1ccc(Cl)cc1.Cl [NCL 153] | 8 | 8 µg/mL | >128 | 32 µg/mL | 16 | >128 |  |  |  |  |  | 
2 | CCCCC(=NNC(=N)NN=C(CCCC)c1ccc(Cl)cc1)c1ccc(Cl)cc1.Cl [NCL 154] | >128 | >128 µg/mL | >128 | >128 µg/mL | >128 | >128 |  |  |  |  |  | 
3 | C/C(=N\NC(=N)N/N=C(\C)c1ccc(Br)cc1)c1ccc(Br)cc1.Cl [NCL 155] | 16 | 8 µg/mL | >128 | 8 µg/mL | 8 | >128 |  |  |  |  |  | 
4 | CCCC(=NNC(=N)NN=C(CCC)c1ccc(Cl)cc1)c1ccc(Cl)cc1.Cl [NCL 156] | >128 | >128 µg/mL | >128 | >128 µg/mL | >128 | >128 |  |  |  |  |  | 
5 | Cl.N=C(NN=Cc1ccc(Cl)cc1N)NN=Cc1ccc(Cl)cc1N [NCL 157] | 2 | 2 µg/mL and 4 µg/mL | >128 | 2 µg/mL | 2 | >128 |  |  |  |  |  | 
6 | CCC(=NNC(=N)NN=C(CC)c1ccc(Cl)cc1O)c1ccc(Cl)cc1O.Cl [NCL 158] | 4 | 4 µg/mL | >128 | 4 µg/mL | 4 | >128 |  |  |  |  |  | 
7 | Cl.N=C(NN=C(c1ccc(Cl)cc1O)C1CCCC1)NN=C(c1ccc(Cl)cc1O)C1CCCC1 [NCL 159] | 16 | 128 µg/mL | >128 | 64 µg/mL | 128 | >128 |  |  |  |  |  | 
8 | Cl.N=C(NN=Cc1ccc(OC(F)(F)F)cc1)NN=Cc1ccc(OC(F)(F)F)cc1 [NCL 160] | 16 | 64 µg/mL | >128 | 32 µg/mL and 64 µg/mL | 128 | >128 |  |  |  |  |  | 
9 | CC(=NNC(=N)NN=C(C)c1ccc(N2CCNCC2)cc1)c1ccc(N2CCNCC2)cc1.Cl [NCL 161] | 128 | 128 µg/mL | >128 | 64 µg/mL and 128 µg/mL | 128 | >128 |  |  |  |  |  | 
10 | CCO/C(N)=N/N=C(\C)c1ccc(Cl)cc1 [NCL 162] | >128 | >128 µg/mL | >128 | >128 µg/mL | 128 (≈ 534 µM) | >128 |  |  |  |  |  | 
11 | Cl.N=C(NN=C1C(=O)Nc2ccccc21)NN=C1C(=O)Nc2ccccc21 [NCL 163] | >128 | >128 µg/mL | >128 | >128 µg/mL | >128 | >128 |  |  |  |  |  | 
12 | CC(=NNC(=N)NN=C(C)c1ccc(Cl)cc1N)c1ccc(Cl)cc1N.Cl [NCL 164] | >128 | >128 µg/mL | >128 | >128 µg/mL | >128 | >128 |  |  |  |  |  | 
13 | Cl.Cl.Cl.N=C(NN=C(CN)c1ccccc1)NN=C(CN)c1ccccc1 [NCL 165] | >128 | >128 µg/mL | >128 | >128 µg/mL | >128 | >128 |  |  |  |  |  | 
14 | Cl.N=C(NN=Cc1ccc(SC(F)(F)F)cc1)NN=Cc1ccc(SC(F)(F)F)cc1 [NCL 166] | 8 | 128 µg/mL | >128 | 32 µg/mL | 64 | >128 |  |  |  |  |  | 
15 | Cl.N=C(NN=C(C(=O)O)c1ccccc1)NN=C(C(=O)O)c1ccccc1 [NCL 167] | >128 | >128 µg/mL | >128 | >128 µg/mL | >128 | >128 |  |  |  |  |  | 
16 | CC(O)Nc1cc(Cl)ccc1C=NNC(=N)NN=Cc1ccc(Cl)cc1NC(C)O.Cl (stereo not drawn) [NCL 168] | 64 | 32 µg/mL | >128 | 32 µg/mL | 32 | >128 |  |  |  |  |  | 
17 | N=C(NN=Cc1ccc(Cl)cc1N)NN=Cc1ccc(Cl)cc1N [NCL 169] | 32 (≈ 87.9 µM) | 32 µg/mL (≈ 87.9 µM) | >128 | 32 µg/mL (≈ 87.9 µM) | 64 (≈ 176 µM) | >128 |  |  |  |  |  | 
18 | CC(=O)Nc1cc(Cl)ccc1C=NNC(=N)NN=Cc1ccc(Cl)cc1NC(C)=O [NCL 170] | >128 | >128 µg/mL | >128 | >128 µg/mL | >128 | >128 |  |  |  |  |  | 
19 | CC(=NNC(=N)NN=C(C)c1ccccn1)c1ccccn1.Cl [NCL 172] |  |  |  |  |  |  | >128 | >128 | >128 | 128 | 64 | >128
20 | CC(=NNC(=N)NN=C(C)c1ccc(Cl)cc1O)c1ccc(Cl)cc1O.Cl [NCL 173] |  |  |  |  |  |  | 4 | 32 | >128 | 16 | 16 | >128
21 | Cl.N=C(NN=Cc1ccc(Cl)cc1O)NN=Cc1ccc(Cl)cc1O [NCL 174] |  |  |  |  |  |  | 4 | 32 | >128 | 32 | 32 | >128
22 | Cl.N=C(N/N=C/c1ccc(Cl)nc1)N/N=C/c1ccc(Cl)nc1 [NCL 175] |  |  |  |  |  |  | 32 | >128 | >128 | 64 | >128 | >128
23 | Cl.N=C(NN=Cc1cccnc1N)NN=Cc1cccnc1N [NCL 176] |  |  |  |  |  |  | >128 | >128 | >128 | >128 | >128 | >128
24 | Cl.N=C(NN=C(CO)c1ccc(Cl)cc1)NN=C(CO)c1ccc(Cl)cc1 [NCL 177] |  |  |  |  |  |  | 4 | 8 | >128 | 8 | 8 | >128
